The supplement of paper PMC11061612

Assays:
Assay in all cases: combination Emax (second highest fraction inhibited in the dose matrix, 72 h); higher = more inhibition; extreme values may be limits of the assay
[1] = test system: MOLT-4 (T-Lymphoblastic Leukemia)
Summary of the method: (§1)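 Cell lines grown in DMEM/F12 or RPMI with 10% FBS were plated in 1536-well plates and held 24 hours at 37°C, 5% CO2 before 72 hours of exposure to two-drug dose matrices, with DMSO typically at 0.2%. CellTiter-Glo 2.0 luminescence gave viability, which was converted to inhibition. Vehicle wells were set to 0 and blank wells to 1. Combination Emax is the second-highest inhibition in the matrix, and Bliss excess is the observed combination effect minus the expected EA + EB − EA·EB, where EA and EB are the single-agent effects.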

[2] = test system: NCI-H1092 (Small Cell Lung Carcinoma)
Summary of the method: as §1

[3] = test system: ML-2 (Acute Myeloid Leukemia)
Summary of the method: as §1

[4] = test system: OE33 (Esophageal Adenocarcinoma)
Summary of the method: as §1

Hey (Ovarian Carcinoma) = test system: Hey (Ovarian Carcinoma)
Summary of the method: as §1

[5] = test system: EJM (Plasma Cell Myeloma)
Summary of the method: as §1

[6] = test system: KGN (Other Solid Carcinomas)
Summary of the method: as §1

[7] = test system: HCC1500 (Breast Carcinoma)
Summary of the method: as §1

[8] = test system: NCI-H522 (Lung Adenocarcinoma)
Summary of the method: as §1

[9] = test system: Ca-Ski (Cervical Carcinoma)
Summary of the method: as §1

[10] = test system: KOPN-8 (B-Lymphoblastic Leukemia)
Summary of the method: as §1

[11] = test system: MDA-MB-453 (Breast Carcinoma)
Summary of the method: as §1

[12] = test system: A4-Fuk (B-Lymphoblastic Leukemia)
Summary of the method: as §1

[13] = test system: OACM5-1 (Esophageal Adenocarcinoma)
Summary of the method: as §1

[14] = test system: MV-4-11 (Acute Myeloid Leukemia)
Summary of the method: as §1

[15] = test system: NCI-H1993 (Lung Adenocarcinoma)
Summary of the method: as §1

[16] = test system: ALL-SIL (T-Lymphoblastic Leukemia)
Summary of the method: as §1

COLO-679 (Melanoma) = test system: COLO-679 (Melanoma)
Summary of the method: as §1

[17] = test system: ME-180 (Cervical Carcinoma)
Summary of the method: as §1

In the case of CC1(C)CCC(CN2CCN(c3ccc(C(=O)NS(=O)(=O)c4ccc(NCC5CCOCC5)c([N+](=O)[O-])c4)c(Oc4cnc5[nH]ccc5c4)c3)CC2)=C(c2ccc(Cl)cc2)C1 [Venetoclax] + Cc1cc2ncnn2cc1Nc1ncc2c(n1)n(C1CCOCC1)c(=O)n2C [AZD7648] (first compound max 1 µM, 7x7, partner max 10 µM), the “combination Emax” value [1] is reported as 0.445, the “combination Emax” value [2] is reported as 0.317 and the “combination Emax” value [3] is reported as 0.823. For the same compound, the “combination Emax” value [4] was 0.154, the “combination Emax” value (Hey (Ovarian Carcinoma)) was 0.328 and the “combination Emax” value [5] was 0.238. The “combination Emax” value [6] was 0.471, the “combination Emax” value [7] was 0.823 and the “combination Emax” value [8] was 0.112. For the same compound, the “combination Emax” value [9] was 0.209, the “combination Emax” value [10] was 0.739 and the “combination Emax” value [11] was 0.198. For the same compound, the “combination Emax” value [12] was 0.667, the “combination Emax” value [13] was 0.495 and the “combination Emax” value [14] was 1. The “combination Emax” value [15] was 0.541, the “combination Emax” value [16] was 0.658 and the “combination Emax” value (COLO-679 (Melanoma)) was 0.133. The “combination Emax” value [17] was 0.268.

For CC1(C)CCC(CN2CCN(c3ccc(C(=O)NS(=O)(=O)c4ccc(NCC5CCOCC5)c([N+](=O)[O-])c4)c(Oc4cnc5[nH]ccc5c4)c3)CC2)=C(c2ccc(Cl)cc2)C1 [Venetoclax] + C1CN(CCC1(C(=O)N[C@@H](CCO)C2=CC=C(C=C2)Cl)N)C3=NC=NC4=C3C=CN4 [Capivasertib] (first compound max 1 µM, 7x7, partner max 3 µM), the “combination Emax” value [1] was 0.718, the “combination Emax” value [2] was 0.354 and the “combination Emax” value [3] was 0.933. For the same compound, the “combination Emax” value [4] was 0.184, the “combination Emax” value (Hey (Ovarian Carcinoma)) was 0.24 and the “combination Emax” value [5] was 0.255. The “combination Emax” value [6] was 0.389, the “combination Emax” value [7] was 0.704 and the “combination Emax” value [8] was 0.133. For the same compound, the “combination Emax” value [9] was 0.415, the “combination Emax” value [10] was 0.824 and the “combination Emax” value [11] was 0.463. The “combination Emax” value [12] was 0.724, the “combination Emax” value [13] was 0.592 and the “combination Emax” value [14] was 1. For the same compound, the “combination Emax” value [15] was 0.5, the “combination Emax” value [16] was 0.687 and the “combination Emax” value (COLO-679 (Melanoma)) was 0.146. The “combination Emax” value [17] was 0.517.

With CC(=O)Nc1cccc(-n2c(=O)n(C3CC3)c(=O)c3c(Nc4ccc(I)cc4F)n(C)c(=O)c(C)c32)c1 [Trametinib] + Cc1nc(-c2cn3c(n2)-c2ccc(-c4cnn(C(C)(C)C(N)=O)c4)cc2OCC3)n(C(C)C)n1 [Taselisib] (first compound max 1 µM, 7x7, partner max 10 µM) the “combination Emax” value [1] was 0.859, the “combination Emax” value [2] was 0.161 and the “combination Emax” value [3] was 0.968. For the same compound, the “combination Emax” value [4] was 0.84, the “combination Emax” value (Hey (Ovarian Carcinoma)) was 0.893 and the “combination Emax” value [5] was 0.488. The “combination Emax” value [6] was 0.807, the “combination Emax” value [7] was 0.319 and the “combination Emax” value [8] was 0.245. For the same compound, the “combination Emax” value [9] was 0.816, the “combination Emax” value [10] was 0.635 and the “combination Emax” value [11] was 0.798. The “combination Emax” value [12] was 1, the “combination Emax” value [13] was 0.82 and the “combination Emax” value [14] was 0.848. The “combination Emax” value [15] was 0.898, the “combination Emax” value [16] was 0.831 and the “combination Emax” value (COLO-679 (Melanoma)) was 0.856. For the same compound, the “combination Emax” value [17] was 0.714.

For CC1(C)CCC(CN2CCN(c3ccc(C(=O)NS(=O)(=O)c4ccc(NCC5CCOCC5)c([N+](=O)[O-])c4)c(Oc4cnc5[nH]ccc5c4)c3)CC2)=C(c2ccc(Cl)cc2)C1 [Venetoclax] + Cn1cnc2c(F)c(Nc3ccc(Br)cc3Cl)c(C(=O)NOCCO)cc21 [Selumetinib] (first compound max 1 µM, 7x7, partner max 3 µM), the “combination Emax” value [1] was 0.451, the “combination Emax” value [2] was 0.253 and the “combination Emax” value [3] was 1. The “combination Emax” value [4] was 0.174, the “combination Emax” value (Hey (Ovarian Carcinoma)) was 0.55 and the “combination Emax” value [5] was 0.0906. For the same compound, the “combination Emax” value [6] was 0.246, the “combination Emax” value [7] was 0.612 and the “combination Emax” value [8] was 0.0772. For the same compound, the “combination Emax” value [9] was 0.219, the “combination Emax” value [10] was 0.971 and the “combination Emax” value [11] was 0.15. The “combination Emax” value [12] was 0.712, the “combination Emax” value [13] was 0.336 and the “combination Emax” value [14] was 1. The “combination Emax” value [15] was 0.436, the “combination Emax” value [16] was 0.679 and the “combination Emax” value (COLO-679 (Melanoma)) was 0.737. For the same compound, the “combination Emax” value [17] was 0.256.

In the case of COc1cccc(OCCCN)c1-c1cc(Nc2cnc(C#N)cn2)n[nH]1 [Prexasertib] + O=C(c1cc(Cc2n[nH]c(=O)c3ccccc23)ccc1F)N1CCN(C(=O)C2CC2)CC1 [Olaparib] (first compound max 1 µM, 7x7, partner max 10 µM), the “combination Emax” value [1] is reported as 1, the “combination Emax” value [2] is reported as 0.67 and the “combination Emax” value [3] is reported as 1. For the same compound, the “combination Emax” value [4] was 0.691, the “combination Emax” value (Hey (Ovarian Carcinoma)) was 0.827 and the “combination Emax” value [5] was 0.969. The “combination Emax” value [6] was 0.829, the “combination Emax” value [7] was 0.286 and the “combination Emax” value [8] was 0.418. The “combination Emax” value [9] was 0.787, the “combination Emax” value [10] was 0.961 and the “combination Emax” value [11] was 0.776. For the same compound, the “combination Emax” value [12] was 0.919, the “combination Emax” value [13] was 0.641 and the “combination Emax” value [14] was 0.998. The “combination Emax” value [15] was 0.845, the “combination Emax” value [16] was 0.992 and the “combination Emax” value (COLO-679 (Melanoma)) was 0.851. The “combination Emax” value [17] was 0.429.

CC1(C)CCC(CN2CCN(c3ccc(C(=O)NS(=O)(=O)c4ccc(NCC5CCOCC5)c([N+](=O)[O-])c4)c(Oc4cnc5[nH]ccc5c4)c3)CC2)=C(c2ccc(Cl)cc2)C1 [Venetoclax] + COc1cc(Nc2ncc3c(n2)-c2ccc(Cl)cc2C(c2c(F)cccc2OC)=NC3)ccc1C(=O)O [Alisertib] (first compound max 1 µM, 7x7, partner max 10 µM) was tested, and the “combination Emax” value [1] was 0.959, the “combination Emax” value [2] was 0.684 and the “combination Emax” value [3] was 0.988. For the same compound, the “combination Emax” value [4] was 0.314, the “combination Emax” value (Hey (Ovarian Carcinoma)) was 0.61 and the “combination Emax” value [5] was 0.146. For the same compound, the “combination Emax” value [6] was 0.685, the “combination Emax” value [7] was 0.805 and the “combination Emax” value [8] was 0.277. The “combination Emax” value [9] was 0.64, the “combination Emax” value [10] was 1 and the “combination Emax” value [11] was 0.314. For the same compound, the “combination Emax” value [12] was 0.822, the “combination Emax” value [13] was 0.663 and the “combination Emax” value [14] was 1. For the same compound, the “combination Emax” value [15] was 0.308, the “combination Emax” value [16] was 1 and the “combination Emax” value (COLO-679 (Melanoma)) was 0.282. For the same compound, the “combination Emax” value [17] was 0.603.
